Read-outs that look alike come from different tables or passages of the source.
Key:
[1] = biological target: T1, F508del/F508del CFTR (Homo sapiens, UniProt P13569, DEL508-508); assay: Trans-Epithelial Current Clamp (TECC) assay using primary human bronchial epithelial cells; format: cell-based; settings: for Emax (% Dual): maximum percent activity relative to positive control (co-corrector 0.15 μM + potentiator 0.45 μM = 100%); for EC50: primary hBE cells F508del/F508del, test corrector with co-corrector and potentiator, 18-24 hours, equivalent CFTR current
T1 construct: cells isolated from CF patients with the homozygous mutation; endogenous in cells; host or cells: primary human bronchial epithelial (hBE) cells from CF patients homozygous for F508del
Text: A cell-based assay was developed using the primary human bronchial epithelial cells (hBE cells) with F508del/F508del CFTR and other mutations.
Primary human bronchial epithelial (hBE) cells from CFTR patients with homozygous F508del/F508del mutation were expanded from 1×10^6 to 250×10^6 cells (Neuberger, T et al., 2011, Methods Mol Biol 741:39-54). For this purpose, cells isolated from CF patients with the homozygous mutation, procured from the CF center tissue procurement and cell culture core at the Marsico Lung Institute at UNC (Randell), the Cystic Fibrosis translational research center at McGill University (University), and Rosalind Franklin University Medical School (RFUMS) were seeded onto 24 well Corning (Cat #3378) filter plates that were coated with 3T3 conditioned media and grown at an air-liquid interface for 35 days using an Ultroser® G supplemented differentiation media. All the primary human bronchial epithelial cells were collected in accordance with institutional review board approval protocols. Apical surface mucus was removed 72 hours before the experiment by incubating the apical surface of the cells for 30 minutes with 3 mM dithiothreitol (DTT) prepared in Dulbecco's phosphate buffered saline (DPBS) with Ca^2+ and Mg^2+. This was followed with aspiration of the mucus from the apical surface along with DPBS. The apical surface was re-washed with phosphate buffered saline (PBS) incubated for 30 minutes followed with aspiration. These hBE cells were then incubated with the desired concentrations of the test C2 corrector compounds along with co-corrector, 4-[(2R,4R)-4-({[1-(2,2-difluoro-1,3-benzodioxol-5-yl)cyclopropyl]carbonyl}amino)-7-(difluoromethoxy)-3,4-dihydro-2H-chromen-2-yl]benzoic acid and potentiator, (5-{3-amino-5-[4-(trifluoromethoxy)benzene-1-sulfonyl]pyridin-2-yl}-1,3,4-oxadiazol-2-yl)methanol, for 18-24 hours at 37° C., 5% CO2. The desired concentrations of the correctors and potentiator compounds were prepared from the 10 mM stocks in differentiation media and were always applied on the basolateral side of the epithelial cells. We also used an assay format where a fixed concentration of potentiator was added chronically along with the corrector compounds. This chronic treatment with the potentiator helped eliminate any interaction that might happen with CFTR modulators (correctors and potentiators) and thereby determined the true efficacy of the modulator combinations reflective of clinical relevance.
The assay uses a Transepithelial Current Clamp (TECC) (Vu, C B et al., 2017; J Med Chem 60:458-473) instrument that can measure the functionality of the mutated channel by measuring the equivalent CFTR current (IEQ) generated by the polarized primary epithelial cells. We used a TECC-24 with a 24-channel electrode manifold allowing for the simultaneous measurement of the transepithelial voltage, VT, and transepithelial resistance, RT, under current clamp conditions, from 24 filters using a 24 well Costar filter plate. The design of the filters in the 24 well filter plates was exactly the same as the design of an individual Transwell filter used in the classical Ussing Chamber with a surface area of 0.33 cm^2. Each measured VT values were corrected for the electrode offset potential measured using buffer alone in a separate plate, and each measured RT values were then corrected for the combined solution series and empty filter resistances. The corrected VT and RT values were then used to calculate the equivalent current, IEQ using Ohm's law (IEQ=VT/RT). The area under the curve (AUC) for the time period between the forskolin peak IEQ response and at the time of bumetanide addition was also calculated using a one-third trapezoid method, in addition to calculating the IEQ. The assay was run in a 24-well format and all 24-wells were measured at the same time point giving a higher throughput for this assay. […]

[2] = biological target: T2, F508delCFTR (Homo sapiens, UniProt P13569, DEL508-508); assay: Cell Surface Expression-Horse Radish Peroxidase (CSE-HRP) assay in CFBE41o-F508delCFTR-HRP cells; format: cell-based; settings: for EC50: CFBE41o-F508delCFTR-HRP cells, 18-24 hours at 33° C.; for Emax / Maximum % activity (with co-corrector): normalized to on-plate positive control; for Emax: read-out: Maximum % activity (without co-corrector)
T2 construct: expressed in transfected cells; host or cells: CFBE41o- human lung derived epithelial cell line, doxycycline-induced expression
Method: A cellular assay for measuring the F508delCFTR cell surface expression after correction with test compounds either without or with a co-corrector (2 μM of 3-[(2R,4R)-4-({[1-(2,2-difluoro-1,3-benzodioxol-5-yl)cyclopropyl]carbonyl}amino)-7-methoxy-3,4-dihydro-2H-chromen-2-yl]benzoic acid), was developed in human lung derived epithelial cell line (CFBE41o-) (Veit G et al, (2012) Mol Biol Cell. 23(21): 4188-4202). The development was achieved by expressing the F508delCFTR mutation along with a horseradish peroxidase (HRP) in the fourth exofacial loop, and then measuring the HRP activity using luminescence readout from these cells, CFBE41o-F508delCFTR-HIRP, that were incubated overnight with the test corrector compounds, either without or with the co-corrector. For this primary assay, the CFBE41o-F508delCFTR-HRP cells were plated in 384-well plates (Greiner Bio-one; Cat 781080) at 4,000 cells/well along with 0.5 μg/mL doxycycline to induce the F508delCFTR-HRP expression and further incubated at 37° C., […] for 68-72 hours. The test compounds were then added either without or with a co-corrector at the required concentrations and further incubated for 18-24 hours at 33° C. The highest concentration tested was 20 μM or 30 μM (GI-1 to GIII-36) with an 8-point concentration response curve using a 3-fold dilution in both the test compound without or with the co-corrector. Three replicate plates were run to determine one EC50. All plates contained negative controls (dimethyl sulfoxide, DMSO) and positive control (2 μM or 3 μM (GI-1 to GIII-36) of 3-[(2R,4R)-4-({[1-(2,2-difluoro-1,3-benzodioxol-5-yl)cyclopropyl]carbonyl}amino)-7-methoxy-3,4-dihydro-2H-chromen-2-yl]benzoic acid) as well as on-plate concentration response of the positive control. Post incubation, the plates were washed 5× times with Dulbecco's phosphate buffered saline (DPBS), followed by the addition of the HRP substrate, luminol (50 μL), and measuring the HRP activity using luminescence readout on EnVision® Multilabel Plate Reader (Perkin Elmer; product number 2104-0010). The raw counts from the experiment were analyzed using Accelrys® Assay Explorer v3.3.
Z′ greater than 0.5 was used as passing quality control criteria for the plates. The Z′ is defined as:
1−[3*SDPositive Control+3*SDNegative Control/Absolute(MeanPositive Control−MeanNegative Control)]
The % activity measured at each of the 8 test concentrations of the test compound added either without or with a co-corrector (2 μM or 3 μM (GI-1 to GIII-36) of 3-[(2R,4R)-4-({[1-(2,2-difluoro-1,3-benzodioxol-5-yl)cyclopropyl]carbonyl}amino)-7-methoxy-3,4-dihydro-2H-chromen-2-yl]benzoic acid) was normalized to the on-plate positive control using the following formulae:
% activity (Test compound without co-corrector)=[(test compound without co-corrector response−DMSO response)/(positive control response−DMSO response)]*100
% activity (Test compound with co-corrector)=[(test compound with co-corrector response−DMSO response)/(positive control response−DMSO response)]*100
The maximum % activity achieved for the test compound either without or with a co-corrector at any tested concentration is presented in Table 3 along with the respective EC50's calculated using the following general sigmoidal curve with variable Hill slope equation (described as Model 42 in the Accelrys® Assay Explorer v3.3 software):
General sigmoidal curve with concentration, response, top, bottom, EC50 and Hill slope. This model describes a sigmoidal curve with an adjustable baseline, a. The equation can be used to fit curves where response is either increasing or decreasing with respect to the independent variable, “x”.

[3] = without co-corrector, read-out: EC50 (without co-corrector)
[4] = with co-corrector 2 μM, read-out: EC50 (with co-corrector)

T2 sequence (P13569 with tags, fused parts or gaps DEL508-508): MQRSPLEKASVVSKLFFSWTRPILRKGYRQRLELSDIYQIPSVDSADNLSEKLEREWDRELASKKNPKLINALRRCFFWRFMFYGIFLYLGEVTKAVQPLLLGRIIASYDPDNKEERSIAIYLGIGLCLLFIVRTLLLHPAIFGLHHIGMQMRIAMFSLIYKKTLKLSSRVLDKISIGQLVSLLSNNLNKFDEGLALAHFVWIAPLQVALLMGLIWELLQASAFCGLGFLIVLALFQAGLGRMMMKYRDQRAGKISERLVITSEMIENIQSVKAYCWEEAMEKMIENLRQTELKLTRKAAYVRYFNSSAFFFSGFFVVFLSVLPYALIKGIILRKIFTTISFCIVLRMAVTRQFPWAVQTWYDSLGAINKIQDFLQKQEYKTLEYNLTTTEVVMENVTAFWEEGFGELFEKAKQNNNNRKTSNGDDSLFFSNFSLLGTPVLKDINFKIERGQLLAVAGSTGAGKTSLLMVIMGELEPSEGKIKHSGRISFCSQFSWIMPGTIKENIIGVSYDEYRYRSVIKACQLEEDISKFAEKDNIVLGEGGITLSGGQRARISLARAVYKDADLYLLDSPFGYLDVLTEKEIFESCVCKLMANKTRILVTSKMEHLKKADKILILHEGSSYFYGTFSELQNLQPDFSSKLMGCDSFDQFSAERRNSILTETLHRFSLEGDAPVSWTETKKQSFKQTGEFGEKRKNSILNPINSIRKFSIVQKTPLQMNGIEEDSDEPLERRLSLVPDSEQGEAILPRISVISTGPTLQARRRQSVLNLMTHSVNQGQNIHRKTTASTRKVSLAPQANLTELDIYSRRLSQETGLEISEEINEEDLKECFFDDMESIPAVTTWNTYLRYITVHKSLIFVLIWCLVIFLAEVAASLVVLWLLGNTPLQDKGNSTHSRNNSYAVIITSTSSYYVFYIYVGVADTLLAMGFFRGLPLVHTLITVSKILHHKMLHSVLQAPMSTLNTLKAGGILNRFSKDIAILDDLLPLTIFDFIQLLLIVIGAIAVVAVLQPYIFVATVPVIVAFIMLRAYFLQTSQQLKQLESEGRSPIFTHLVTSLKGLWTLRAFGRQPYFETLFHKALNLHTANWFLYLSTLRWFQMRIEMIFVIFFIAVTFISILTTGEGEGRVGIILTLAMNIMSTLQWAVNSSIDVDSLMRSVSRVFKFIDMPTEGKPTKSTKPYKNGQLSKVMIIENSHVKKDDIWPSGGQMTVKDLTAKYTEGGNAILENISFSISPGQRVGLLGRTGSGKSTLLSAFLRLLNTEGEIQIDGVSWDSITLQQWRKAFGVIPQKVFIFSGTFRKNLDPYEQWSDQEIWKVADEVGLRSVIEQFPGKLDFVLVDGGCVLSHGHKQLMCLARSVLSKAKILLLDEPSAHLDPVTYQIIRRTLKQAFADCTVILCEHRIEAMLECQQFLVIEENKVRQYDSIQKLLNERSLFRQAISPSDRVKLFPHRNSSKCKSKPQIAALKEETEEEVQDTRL
T1 sequence (P13569 with tags, fused parts or gaps DEL508-508): as above

| SMILES | Emax (% Dual) [1] [% Dual] | EC50 [1] [µM] | EC50 [2, 3] [µM] | Emax ([2]; without co-corrector) [%] | EC50 [2, 4] [µM] | Maximum % activity (with co-corrector) ([2]; with co-corrector 2 μM) [%] |
| --- | --- | --- | --- | --- | --- | --- |
| CCOc1ccc(C)cc1[C@]1(C(=O)NS(=O)(=O)c2cccc3nc(C)ccc23)CCCO1 [Example 1, (2S)-2-(2-ethoxy-5-methylphenyl)-N-(2-methylquinoline-5-sulfonyl)oxolane-2-carboxamide] | 226 | 1.71 | 4.94 | 233 | 3.78 | 546 |
| CCOc1ccc(C)cc1[C@@]1(C(=O)NS(=O)(=O)c2cccc3nc(C4CC4)ccc23)CCCO1 [Example 6, (2R)—N-(2-cyclopropylquinoline-5-sulfonyl)-2-(2-ethoxy-5-methylphenyl)oxolane-2-carboxamide] | 235 | 0.0195 | 1.36 | 712 | 1 |  |
| CCc1ccc(Oc2ccccc2)c([C@]2(C(=O)NS(=O)(=O)c3cccc4nc(C)ccc34)CCCO2)c1 [Example 22, (2S)-2-(5-ethyl-2-phenoxyphenyl)-N-(2-methylquinoline-5-sulfonyl)oxolane-2-carboxamide] | 200 | 0.589 | 1.95 | 235 | 1.14 | 673 |
| COc1ccc(C)cc1[C@]1(C(=O)NS(=O)(=O)c2cccc3nc(C)ccc23)CC2(CC2)CO1 [Example 16, (6S)-6-(2-methoxy-5-methylphenyl)-N-(2-methylquinoline-5-sulfonyl)-5-oxaspiro[2.4]heptane-6-carboxamide] | 110 | > 0.3 | 4.8 | 147 | 2.55 | 444 |
| COc1ccc(C)cc1[C@@]1(C(=O)NS(=O)(=O)c2cccc3nc(C)ccc23)CC(C)(C)CO1 [Example 5, (2R)-2-(2-methoxy-5-methylphenyl)-4,4-dimethyl-N-(2-methylquinoline-5-sulfonyl)oxolane-2-carboxamide] | 242 | 0.0078 | 2.27 |  | 1.21 |  |
| CCOc1ccc(C)cc1[C@@]1(C(=O)NS(=O)(=O)c2cccc3nc(C)ccc23)CCCO1 (single isomer, unassigned) [Example 2] | 318 | 0.0825 | 1.54 | 602 | 0.78 |  |

Further lines, results first:

| Emax (% Dual) [1] [% Dual] | EC50 [1] [µM] | EC50 [2, 3] [µM] | Emax ([2]; without co-corrector) [%] | EC50 [2, 4] [µM] | Maximum % activity (with co-corrector) ([2]; with co-corrector 2 μM) [%] | SMILES |
| --- | --- | --- | --- | --- | --- | --- |
| 197 | 0.331 | 2.63 | 301 |  |  | COc1ccc(C)cc1[C@@]1(C(=O)NS(=O)(=O)c2cccc3nc(C)ccc23)C[C@](C)(OC)CO1 [Example 30, (2R,4S)-4-methoxy-2-(2-methoxy-5-methylphenyl)-4-methyl-N-(2-methylquinoline-5-sulfonyl)oxolane-2-carboxamide] |
| 117 | > 5 | 5.16 | 100 |  |  | COc1ccc(C)cc1[C@]1(C(=O)NS(=O)(=O)c2cccc3nc(C)ccc23)C[C@@](C)(OC)CO1 [Example 31, (2S,4R)-4-methoxy-2-(2-methoxy-5-methylphenyl)-4-methyl-N-(2-methylquinoline-5-sulfonyl)oxolane-2-carboxamide] |
| 241 | 0.02 | 1.07 | 726 | 0.48 |  | CCc1ccc(Oc2ccccc2)c([C@@]2(C(=O)NS(=O)(=O)c3cccc4nc(C)ccc34)CCCO2)c1 [Example 23, (2R)-2-(5-ethyl-2-phenoxyphenyl)-N-(2-methylquinoline-5-sulfonyl)oxolane-2-carboxamide] |
| 237 | 0.0111 | 1.12 | 751 | 0.57 |  | COc1cccc([C@@H]2CO[C@@](C(=O)NS(=O)(=O)c3cccc4nc(C)ccc34)(c3cc(C)ccc3OC)C2)c1 [Example 42, (2R,4R)-2-(2-methoxy-5-methylphenyl)-4-(3-methoxyphenyl)-N-(2-methylquinoline-5-sulfonyl)oxolane-2-carboxamide] |
| 335 | 0.0116 | 0.6 | 512 | 0.3 |  | COc1ccc([C@@H]2CO[C@@](C(=O)NS(=O)(=O)c3cccc4nc(C)ccc34)(c3cc(C)ccc3OC)C2)cc1 [Example 44, (2R,4R)-2-(2-methoxy-5-methylphenyl)-4-(4-methoxyphenyl)-N-(2-methylquinoline-5-sulfonyl)oxolane-2-carboxamide] |

— patent publication US20220211692A1, “Modulators of the Cystic Fibrosis Transmembrane Conductance Regulator Protein and Methods of Use” (AbbVie Global Enterprises Ltd., priority 2021, published 2022)
